Earlier results in US7015199B1, “Treatment of psoriasis through down-regulation of the EGF-receptor with topically-applied EGF” (priority 2000, dated 2006).

Tested on: EGF-dependent cancer cell lines
Details: high levels of EGF, in-vitro

Q: For “epidermal growth factor (NSDSECPLSHDGYCLHDGVCMYIEALDKYACNCVVGYIGERCQYRDLKWWELR; Epidermal growth factor; UniProt P01133 971-1023, looked up) [EGF, epidermal growth factor, ligand of the EGF receptor]”, which “growth of EGF-dependent cancer cell lines” value is on record?
A: inhibited the growth
